Data published in ChEMBL document CHEMBL1130119, “2-Carbomethoxy-3-aryl-8-oxabicyclo[3.2.1]octanes: potent non-nitrogen inhibitors of monoamine transporters” (J Med Chem, 1997).

biological target: Monoamine transporters; serotonin & dopamine (Homo sapiens) (UniProt P31645+Q01959); assay: Selectivity ratio measured as the IC50 ratio of DAT receptor to that of 5-HT transporter; conditions: Cercopithecidae
Sequence (P31645 whole entry, looked up): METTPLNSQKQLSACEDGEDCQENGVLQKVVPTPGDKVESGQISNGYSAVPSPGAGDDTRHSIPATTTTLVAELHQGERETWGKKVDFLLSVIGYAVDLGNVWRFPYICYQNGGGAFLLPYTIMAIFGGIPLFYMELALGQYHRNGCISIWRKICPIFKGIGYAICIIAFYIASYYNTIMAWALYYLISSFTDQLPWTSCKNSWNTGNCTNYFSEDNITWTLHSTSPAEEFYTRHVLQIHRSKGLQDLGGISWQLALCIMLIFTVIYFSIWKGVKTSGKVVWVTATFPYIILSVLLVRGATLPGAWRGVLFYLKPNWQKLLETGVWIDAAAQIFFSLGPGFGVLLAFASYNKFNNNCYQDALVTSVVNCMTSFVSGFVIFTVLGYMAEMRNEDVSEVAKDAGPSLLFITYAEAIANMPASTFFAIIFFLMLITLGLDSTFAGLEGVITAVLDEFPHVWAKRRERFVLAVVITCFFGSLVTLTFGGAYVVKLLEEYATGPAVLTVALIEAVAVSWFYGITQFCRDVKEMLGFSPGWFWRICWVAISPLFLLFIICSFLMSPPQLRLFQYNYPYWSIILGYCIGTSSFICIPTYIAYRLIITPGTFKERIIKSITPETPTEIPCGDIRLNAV
Sequence (Q01959 whole entry, looked up): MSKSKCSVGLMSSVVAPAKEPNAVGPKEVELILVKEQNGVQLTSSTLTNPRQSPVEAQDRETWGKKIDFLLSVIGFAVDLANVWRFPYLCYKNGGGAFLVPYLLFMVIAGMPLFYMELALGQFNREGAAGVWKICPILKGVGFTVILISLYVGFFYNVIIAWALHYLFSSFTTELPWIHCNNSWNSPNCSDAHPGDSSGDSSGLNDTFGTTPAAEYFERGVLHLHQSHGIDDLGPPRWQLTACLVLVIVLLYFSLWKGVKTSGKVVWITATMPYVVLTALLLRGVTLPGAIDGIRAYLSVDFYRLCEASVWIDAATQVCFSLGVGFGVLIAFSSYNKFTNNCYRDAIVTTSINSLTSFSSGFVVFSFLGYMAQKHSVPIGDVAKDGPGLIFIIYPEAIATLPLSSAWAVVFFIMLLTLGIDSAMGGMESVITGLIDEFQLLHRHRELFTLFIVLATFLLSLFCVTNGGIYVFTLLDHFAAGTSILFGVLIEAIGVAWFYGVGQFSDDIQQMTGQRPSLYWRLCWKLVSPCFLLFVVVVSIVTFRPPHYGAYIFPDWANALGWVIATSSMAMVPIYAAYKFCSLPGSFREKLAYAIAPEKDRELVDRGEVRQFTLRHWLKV

SMILES | Selectivity ratio
COC(=O)C1C2CCC(CC1c1ccc(I)cc1)O2 (stereo in doubt) [listing 1 of 2 here] | 1.7
COC(=O)C1C2CCC(CC1c1ccccc1)O2 (stereo in doubt; 6a (O-904)) [listing 1 of 2 here] | 10
COC(=O)C1C2CCC(CC1c1ccc(F)cc1)O2 (stereo in doubt; 6b (O-895)) [listing 1 of 2 here] | 5
COC(=O)C1C2CCC(CC1c1ccc(Cl)cc1)O2 (stereo in doubt; 6c (O-916)) [listing 1 of 2 here] | 11
COC(=O)C1C2CCC(CC1c1ccc(Cl)c(Cl)c1)O2 (stereo in doubt; 6f (O-914)) [listing 1 of 2 here] | 2
COC(=O)C1C2CCC(CC1c1ccccc1)O2 (stereo in doubt; 7a (O-905)) [listing 1 of 2 here] | 6
COC(=O)C1C2CCC(CC1c1ccc(F)cc1)O2 (stereo in doubt; 7b (O-899)) [listing 1 of 2 here] | 10
COC(=O)C1C2CCC(CC1c1ccc(Cl)cc1)O2 (stereo in doubt; 7c (O-915)) [listing 1 of 2 here] | 29
COC(=O)C1C2CCC(CC1c1ccc(I)cc1)O2 (stereo in doubt; 7e (O-949)) [listing 1 of 2 here] | 2
COC(=O)C1C2CCC(CC1c1ccc(Cl)c(Cl)c1)O2 (stereo in doubt; 7f (O-913)) [listing 1 of 2 here] | 21
COC(=O)C1C2CCC(CC1c1ccc(Br)cc1)O2 (stereo in doubt; form 1) [listing 1 of 2 here] | 1.4
COC(=O)C1C2CCC(CC1c1ccc(Cl)c(Cl)c1)O2 (stereo in doubt; form 1) [listing 1 of 2 here] | 1.2
COC(=O)C1C2CCC(CC1c1ccc(Br)cc1)O2 (stereo in doubt; form 2) [listing 1 of 2 here] | 31
COC(=O)C1C2CCC(CC1c1ccc(Cl)c(Cl)c1)O2 (stereo in doubt; form 2) [listing 1 of 2 here] | 51
COC(=O)C1C2CCC(CC1c1ccc(Cl)c(Cl)c1)O2 (stereo in doubt; form 3) [listing 1 of 2 here] | 13
COC(=O)C1C2CCC(CC1c1ccc(Cl)c(Cl)c1)O2 (stereo in doubt; form 4) [listing 1 of 2 here] | 1.4

biological target: Sodium-dependent serotonin transporter (Homo sapiens, UniProt P31645); assay: Inhibition of [3H]citalopram binding to the serotonin transporter (5-HT) in monkey caudate-putamen.; type: tissue-based, Cercopithecidae; conditions: target entry is the homologue from another species
Sequence (P31645 whole entry): as the sequence (P31645 whole entry, looked up) above

SMILES | IC50
COC(=O)C1C2CCC(CC1c1ccc(I)cc1)O2 (stereo in doubt) [listing 2 of 2 here] | 12 nM
COC(=O)C1C2CCC(CC1c1ccccc1)O2 (stereo in doubt; 6a (O-904)) [listing 2 of 2 here] | > 10000 nM
COC(=O)C1C2CCC(CC1c1ccc(F)cc1)O2 (stereo in doubt; 6b (O-895)) [listing 2 of 2 here] | 2580 nM
COC(=O)C1C2CCC(CC1c1ccc(Cl)cc1)O2 (stereo in doubt; 6c (O-916)) [listing 2 of 2 here] | 107 nM
COC(=O)C1C2CCC(CC1c1ccc(Cl)c(Cl)c1)O2 (stereo in doubt; 6f (O-914)) [listing 2 of 2 here] | 6.52 nM
COC(=O)C1C2CCC(CC1c1ccccc1)O2 (stereo in doubt; 7a (O-905)) [listing 2 of 2 here] | 11400 nM
COC(=O)C1C2CCC(CC1c1ccc(F)cc1)O2 (stereo in doubt; 7b (O-899)) [listing 2 of 2 here] | > 10000 nM
COC(=O)C1C2CCC(CC1c1ccc(Cl)cc1)O2 (stereo in doubt; 7c (O-915)) [listing 2 of 2 here] | 816 nM
COC(=O)C1C2CCC(CC1c1ccc(I)cc1)O2 (stereo in doubt; 7e (O-949)) [listing 2 of 2 here] | 72 nM
COC(=O)C1C2CCC(CC1c1ccc(Cl)c(Cl)c1)O2 (stereo in doubt; 7f (O-913)) [listing 2 of 2 here] | 64.5 nM
COC(=O)C1C(c2ccc(I)cc2)CC2CCC1N2C (stereo in doubt; 8d) | 4.21 nM
COC(=O)[C@H]1[C@@H](c2ccc(F)cc2)C[C@H]2CC[C@H]1N2C (stereo in doubt; 19b) | 5060 nM
COC(=O)C1C(c2ccc(I)cc2)CC2CCC1N2C (stereo in doubt; 19d) | 64.9 nM
COC(=O)C1C2CCC(CC1c1ccc(Cl)c(Cl)c1)O2 (stereo in doubt; form 1) [listing 2 of 2 here] | 58 nM
COC(=O)C1C(c2ccc(Cl)c(Cl)c2)CC2CCC1N2C (stereo in doubt; form 1) | 27 nM
COC(=O)C1C2CCC(CC1c1ccc(Br)cc1)O2 (stereo in doubt; form 1) [listing 2 of 2 here] | 30 nM
COC(=O)C1C2CCC(CC1c1ccc(Cl)c(Cl)c1)O2 (stereo in doubt; form 2) [listing 2 of 2 here] | 2860 nM
COC(=O)C1C2CCC(CC1c1ccc(Br)cc1)O2 (stereo in doubt; form 2) [listing 2 of 2 here] | 276 nM
COC(=O)C1C2CCC(CC1c1ccc(Cl)c(Cl)c1)O2 (stereo in doubt; form 3) [listing 2 of 2 here] | 31 nM
COC(=O)C1C2CCC(CC1c1ccc(Cl)c(Cl)c1)O2 (stereo in doubt; form 4) [listing 2 of 2 here] | 4.67 nM
